{"source": "patent US8318954B2", "about": "“Cleavable carnitine compound” (Nou Life Sciences, Inc., priority 2006, dated 2012)", "origin": "cited, not measured here", "key": {"[1]": {"test_system": "subcutaneous adipocytes in rats", "conditions": "long-term administration, rat; cited from earlier work"}, "chinchilla laniger": {"test_system": "chinchilla laniger", "conditions": "cited from earlier work"}, "[2]": {"test_system": "patients having diabetic neuropathy", "conditions": "cited from earlier work"}, "diabetic rats [3]": {"test_system": "diabetic rats", "conditions": "diabetic rat, 30 days after sciatic nerve cutting; diet: 200 mg/kg acetyl L-carnitine, 200 mg/kg carnitine mixture, 50 mg/kg α-lipoic acid daily; cited from earlier work"}, "[4]": {"test_system": "rats with unilateral sciatic nerve division", "conditions": "50 mg/kg/day i.p. for 6 weeks; compared to no treatment; cited from earlier work"}, "diabetic rats [5]": {"test_system": "diabetic rats", "conditions": "streptozocin diabetic rats, sciatic nerve; amount administered not specified; cited from earlier work"}, "Wobbler mice": {"test_system": "Wobbler mice", "conditions": "twenty days oral, acetyl L-carnitine 200 mg/kg, carnitine mixture 200 mg/kg, α-lipoic acid 50 mg/kg; cited from earlier work"}, "[6]": {"test_system": "rats with unilateral sciatic nerve division", "conditions": "cited from earlier work"}, "mice and rats": {"test_system": "mice and rats", "conditions": "cited from earlier work"}, "[7]": {"conditions": "three weeks after noise exposure"}}, "note": "“Also recorded” adds a separate entry of the source. Where two headings read alike, the source gives them in different places.", "data": [{"smiles": "CC(=O)O[C@H](CC(=O)[O-])C[N+](C)(C)C", "note": "[Acetyl-L-carnitine]", "values": [{"measurement": "size of subcutaneous adipocytes in aging skin", "setting": "[1]", "value": "blocks progressive increase in size"}, {"measurement": "outer hair cell loss", "setting": "chinchilla laniger; 4- to 10-kHz region", "value": "< 10", "unit": "%"}, {"measurement": "inner and outer hair cell loss", "setting": "chinchilla laniger; in vivo", "value": "reduced"}, {"measurement": "threshold shift at 2 to 4 kHz", "setting": "chinchilla laniger; [7]", "value": "no threshold shift"}, {"measurement": "threshold shifts at 6 to 8 kHz", "setting": "chinchilla laniger; [7]", "value": "< 10", "unit": "dB"}, {"measurement": "tolerability", "setting": "[2]; 1000 mg/day i.m. 10 days, then 2000 mg/day oral 355 days, 12 month period", "value": "well tolerated"}, {"measurement": "nerve conduction velocity NCV", "setting": "[2]; at 6- and 12 months, compared to placebo", "value": "statistically significant improvement"}, {"measurement": "Amplitude", "setting": "[2]; at 12 months, patients with impaired electrophysiological parameters at baseline, compared to placebo", "value": "statistically significant improvement"}, {"measurement": "pain (visual analogue scale)", "setting": "[2]; compared to placebo", "value": "significant reduction; also recorded: statistically significant improvement"}, {"measurement": "Density of tibial nerve degenerate elements", "setting": "diabetic rats [3]", "value": "0.16 ± 0.02", "unit": "per 100 nm^2"}, {"measurement": "Number of tibial nerve degenerate elements", "setting": "diabetic rats [3]", "value": "560 ± 61"}, {"measurement": "immunostaining for Schwann cells, percentage area", "setting": "[4]", "value": 86, "unit": "% increase"}, {"measurement": "immunostaining for Schwann cells, total area", "setting": "[4]", "value": 111, "unit": "% increase"}, {"measurement": "immunostaining for nerve fibres, percentage area", "setting": "[4]", "value": 229, "unit": "% increase"}, {"measurement": "immunostaining for nerve fibres, total area", "setting": "[4]", "value": 264, "unit": "% increase"}, {"measurement": "regeneration into the distal stump, percentage area", "setting": "[4]", "value": "3,034 % increase"}, {"measurement": "regeneration into the distal stump, total area", "setting": "[4]", "value": "2,242 % increase"}, {"measurement": "NMCV", "setting": "diabetic rats [5]", "value": "34.5 ± 2.1", "unit": "m/sec"}, {"measurement": "% increase in running time", "setting": "Wobbler mice", "value": "35 ± 3.2", "unit": "%"}, {"measurement": "number of TUNEL-positive neurons", "setting": "[6]; 2 weeks after axotomy, high-dose 50 mg/kg/day parenteral, 50 mg/kg/day", "value": "3 /group"}, {"measurement": "number of TUNEL-positive neurons", "setting": "[6]; 2 weeks after axotomy, high-dose 50 mg/kg/day parenteral, listed as ALCAR, 50 mg/kg/day", "value": "significantly reduced"}, {"measurement": "neuron loss", "setting": "[6]; 2 weeks after axotomy, high-dose 50 mg/kg/day, 50 mg/kg/day", "value": 2, "unit": "%"}, {"measurement": "neuron loss", "setting": "[6]; 2 weeks after axotomy, high-dose 50 mg/kg/day, listed as ALCAR, 50 mg/kg/day", "value": "significantly reduced"}, {"measurement": "number of TUNEL-positive neurons", "setting": "[6]; 2 weeks after axotomy, low-dose 10 mg/kg/day parenteral", "value": "6 /group"}, {"measurement": "neuron loss", "setting": "[6]; 2 weeks after axotomy, low-dose 10 mg/kg/day", "value": 0, "unit": "%"}, {"measurement": "neuron loss", "setting": "[6]; two months after axotomy, high-dose 50 mg/kg/day", "value": "−4", "unit": "%"}, {"measurement": "dose that can be parenterally administered", "setting": "mice and rats; parenteral, mice and rats", "value": "up to 250 mg/kg"}, {"measurement": "tolerability on prolonged administration", "setting": "mice and rats; via the diet, 30 consecutive days, 200 mg/kg acetyl L-carnitine together with 100 mg/kg alpha lipoic acid", "value": "well tolerated"}]}]}
